Columns and labels:
HIV = assay: Antiviral activity: inhibition of the cytopathic effect of HIV in MT4 cells; assay type: cell-based; settings: MT4 cells; 50% inhibition of the cytopathic effect of HIV; read-out: EC50
Description: (§1) The IC50 is the concentration of compound that gives 50% inhibition of the cytopathic effect of HIV. The LC50 is the concentration of compound at which 50% of the cells remain viable.

MT4 cells = assay: Cytotoxicity in MT4 cells (LC50, 50% of the cells remain viable); assay type: cell-based; settings: MT4 cells; concentration at which 50% of the cells remain viable
Description: as §1

HIV-1 protease = HIV-1 protease (Human immunodeficiency virus type 1 group M subtype B, UniProt P04585); assay: Fluorogenic assay for screening inhibitors of HIV protease; settings: compound concentration 0.5 nM; fluorogenic substrate 1.3 μM, pH 4.5, 30° C.
Description: A compound of the invention is dissolved in DMSO. A small aliquot is diluted with DMSO to 100 times the final concentration desired for testing. The test is carried out in a 6×50 mm tube in a total volume of 300 microliters. The final concentrations of the components in the reaction buffer are: 125 mM sodium acetate, 1 M sodium chloride, 5 mM dithiothreitol, 0.5 mg/ml bovine serum albumin, 1.3 μM fluorogenic substrate, 2% (v/v) dimethylsulfoxide, pH 4.5. After addition of inhibitor, the reaction mixture is placed in the fluorometer cell holder and incubated at 30° C. for several minutes. The reaction is initiated by the addition of a small aliquot of cold HIV protease. The fluorescence intensity (excitation 340 nm, emmision 490 nM) is recorded as a function of time. The reaction rate is determined for the first six to eight minutes. The observed rate is directly proportional to the moles of substrate cleaved per unit time. The percent inhibition is 100×(1- (rate in presence of inhibitor)/(rate in absence of inhibitor)).
The test compounds were then tested at a concentration of 0.5 nM.

Compound	EC50 (HIV)	CC50 (MT4 cells)	% Inhib. (0.5 nM) (HIV-1 protease)
2-(1-Methylethyl)-4-thiazolylmethyl-(1S)-1-[[[(1S,2R)-3-[[(4-aminophenyl)sulfonyl](1-methylethyl)amino]-2-hydroxy-1-(phenylmethyl)propyl]amino]carbonyl]-2-methylpropyl]carbamate [Example 28]	0.011 µM	49.5 µM	77%
2-(1-Methylethyl)-4-thiazolylmethyl-[(1S)-1-[[[(1S,2R)-3-[(2S)-2-[[(1,1-dimethylethyl)amino]carbonyl]-4-(5-thienylmethyl)-1-piperazinyl]-2-hydroxy-1-(phenylmethyl)propyl]amino]carbonyl]-2-methylpropyl]carbamate [Example 4]	0.012 µM	69 µM	67%
2-(1-Methylethyl)-4-thiazolylmethyl-[(1S)-1-[[[(1S,2R)-3-[[[(1,1-dimethylethyl)amino]carbonyl](2-methylethyl)propylamino]-2-hydroxy-1-(phenylmethyl)propyl]amino]carbonyl]-2-methylpropyl]carbamate [Example 27]	0.374 µM	20.6 µM	50%
5-Thiazolylmethyl-[(1S)-1-[[[(1S,2R)-3-[(2S)-2-[[(1,1-dimethylethyl)amino]carbonyl]-4-(phenylmethyl)-1-piperazinyl]-2-hydroxy-1-(phenylmethyl)propyl]amino]carbonyl]-2-methylpropyl]carbamate [Example 24]	0.017 µM	55.4 µM	40%
CC(C)c1nc(COC(=O)N[C@H](C(=O)N[C@@H](Cc2ccccc2)[C@H](O)CN2CCN(Cc3ccc4c(c3)OCO4)C[C@H]2C(=O)NC(C)(C)C)C(C)C)cs1 [Example 1, 2-(1-Methylethyl)-4-thiazolylmethyl-[(1S)-1-[[[(1S,2R)-3-[(2S)-4-(1,3-benzodioxol-5-ylmethyl)-2-[[(1,1-dimethylethyl)amino]carbonyl]-1-piperazinyl]-2-hydroxy-1-(phenylmethyl)propyl]amino]carbonyl]-2-methylpropyl]carbamate]	0.003 µM	12.8 µM	60%
CC(C)c1nc(COC(=O)N[C@H](C(=O)N[C@@H](Cc2ccccc2)[C@H](O)CN2CCN(Cc3ccccc3)C[C@H]2C(=O)NC(C)(C)C)C(C)C)cs1 [Example 2, 2-(1-Methylethyl)-4-thiazolylmethyl-[(1S)-1-[[[(1S,2R)-3-[(2S)-2-[[(1,1-dimethylethyl)amino]carbonyl]-4-(phenylmethyl)-1-piperazinyl]-2-hydroxy-1-(phenylmethyl)propyl]amino]carbonyl]-2-methylpropyl]carbamate]	0.022 µM	47.1 µM	66%
CC(C)c1nc(COC(=O)N[C@H](C(=O)N[C@@H](Cc2ccccc2)[C@H](O)CN2CCN(Cc3ccc(F)cc3)C[C@H]2C(=O)NC(C)(C)C)C(C)C)cs1 [Example 3]	0.021 µM	15.7 µM	64%
CC(C)c1nc(COC(=O)N[C@H](C(=O)N[C@@H](Cc2ccccc2)[C@H](O)CN2CCN(Cc3cccc(O)c3)C[C@H]2C(=O)NC(C)(C)C)C(C)C)cs1 [Example 5, 2-(1-Methylethyl)-4-thiazolylmethyl-[(1S)-1-[[[(1S,2R)-3-[(2S)-2-[[(1,1-dimethylethyl)amino]carbonyl]-4-[4-(3-hydroxyphenyl)methyl]-1-piperazinyl]-2-hydroxy-1-(phenylmethyl)propyl]amino]carbonyl]-2-methylpropyl]carbamate]	0.04 µM	16.7 µM	69%
CC(C)c1nc(COC(=O)N[C@H](C(=O)N[C@@H](Cc2ccccc2)[C@H](O)CN2CCN(Cc3cccnc3)C[C@H]2C(=O)NC(C)(C)C)C(C)C)cs1 [Example 6, 2-(1-Methylethyl)-4-thiazolylmethyl-[(1S)-1-[[[(1S,2R)-3-[(2S)-2-[[(1,1-dimethylethyl)amino]carbonyl]-4-(3-pyridinylmethyl)-1-piperazinyl]-2-hydroxy-1-(phenylmethyl)propyl]amino]carbonyl]-2-methylpropyl]carbamate]	0.012 µM	58.6 µM	60%
CC(C)c1nc(COC(=O)N[C@H](C(=O)N[C@@H](Cc2ccccc2)[C@H](O)CN2CCN(Cc3ccncc3)C[C@H]2C(=O)NC(C)(C)C)C(C)C)cs1 [Example 7, 2-(1-Methylethyl)-4-thiazolylmethyl-[(1S)-1-[[[(1S,2R)-3-[(2S)-2-[[(1,1-dimethylethyl)amino]carbonyl]-4-(4-pyridinylmethyl)-1-piperazinyl]-2-hydroxy-1-(phenylmethyl)propyl]amino]carbonyl]-2-methylpropyl]carbamate]	0.017 µM	55.2 µM	73%
CC(C)c1nc(COC(=O)N[C@H](C(=O)N[C@@H](Cc2ccccc2)[C@H](O)CN2CCN(Cc3ccc(O)cc3)C[C@H]2C(=O)NC(C)(C)C)C(C)C)cs1 [Example 8, 2-(1-Methylethyl)-4-thiazolylmethyl-[(1S)-1-[[[(1S,2R)-3-[(2S)-2-[[(1,1-dimethylethyl)amino]carbonyl]-4-[(4-hydroxyphenyl)methyl]-1-piperazinyl]-2-hydroxy-1-(phenylmethyl)propyl]amino]carbonyl]-2-methylpropyl]carbamate]	0.047 µM	18.9 µM	54%
CC(C)c1nc(COC(=O)N[C@H](C(=O)N[C@@H](Cc2ccccc2)[C@H](O)CN2CCN(Cc3nc4ccccc4[nH]3)C[C@H]2C(=O)NC(C)(C)C)C(C)C)cs1 [Example 9]	0.046 µM	18.4 µM	65%
CC(C)c1nc(COC(=O)N[C@H](C(=O)N[C@@H](Cc2ccccc2)[C@H](O)CN2CCN(Cc3ccc4ccccc4n3)C[C@H]2C(=O)NC(C)(C)C)C(C)C)cs1 [Example 10, 2-(1-Methylethyl)-4-thiazolylmethyl-[(1S)-1-[[[(1S,2R)-3-[(2S)-2-[[(1,1-dimethylethyl)amino]carbonyl]-4-(2-quinolinylmethyl)-1-piperazinyl]-2-hydroxy-1-(phenylmethyl)propyl]amino]carbonyl]-2-methylpropyl]carbamate]	0.014 µM	18.2 µM	70%
COc1ccc(CN2CCN(C[C@@H](O)[C@H](Cc3ccccc3)NC(=O)[C@@H](NC(=O)OCc3csc(C(C)C)n3)C(C)C)[C@H](C(=O)NC(C)(C)C)C2)cc1OC [Example 11, 2-(1-Methylethyl)-4-thiazolylmethyl[(1S)-1-[[[(1S,2R)-3-[(2S)-4-[(3,4-dimethoxylphenyl)methyl]-2-[[(1,1-dimethylethyl)amino]carbonyl]-1-piperazinyl]-2-hydroxy-1-(phenylmethyl)propyl]amino]carbonyl]-2-methylpropyl]carbamate]	0.017 µM	18.3 µM	62%
Cc1nc(COC(=O)N[C@H](C(=O)N[C@@H](Cc2ccccc2)[C@H](O)CN2CCN(Cc3ccc4c(c3)OCO4)C[C@H]2C(=O)NC(C)(C)C)C(C)C)cs1 [Example 15, 2-Methyl-4-thiazolylmethyl-[(1S)-1-[[[(1S,2R)-3-[(2S)-4-(1,3-benzodioxol-5-ylmethyl)-2-[[(1,1-dimethylethyl)amino]carbonyl]-1-piperazinyl]-2-hydroxy-1-(phenylmethyl)propyl]amino]carbonyl]-2-methylpropyl]carbamate]	0.011 µM	53.1 µM	45%
COc1ccc(CN2CCN(C[C@@H](O)[C@H](Cc3ccccc3)NC(=O)[C@@H](NC(=O)OCc3csc(C)n3)C(C)C)[C@H](C(=O)NC(C)(C)C)C2)cc1OC [Example 16, 2-Methyl-4-thiazolylmethyl-[(1S)-1-[[[(1S,2R)-3-[(2S)-4-[(3,4-dimethoxylphenyl)methyl]-2-[[(1,1-dimethylethyl)amino]carbonyl]-1-piperazinyl]-2-hydroxy-1-(phenylmethyl)propyl]amino]carbonyl]-2-methylpropyl]carbamate]	0.01 µM	61.7 µM	49%
Cc1nc(COC(=O)N[C@H](C(=O)N[C@@H](Cc2ccccc2)[C@H](O)CN2CCN(Cc3ccc(F)cc3)C[C@H]2C(=O)NC(C)(C)C)C(C)C)cs1 [Example 17, 2-Methyl-4-thiazolylmethyl-[(1S)-1-[[[(1S,2R)-3-[(2S)-2-[[(1,1-dimethylethyl)amino]carbonyl]-4-[(4-fluorophenyl)methyl]-1-piperazinyl]-2-hydroxy-1-(phenylmethyl)propyl]amino]carbonyl]-2-methylpropyl]carbamate]	0.011 µM	39.2 µM	50%
CCc1nc(COC(=O)N[C@H](C(=O)N[C@@H](Cc2ccccc2)[C@H](O)CN2CCN(Cc3ccc(OC)c(OC)c3)C[C@H]2C(=O)NC(C)(C)C)C(C)C)cs1 [Example 18]	0.019 µM	44.6 µM	82%
COc1ccc(CN2CCN(C[C@@H](O)[C@H](Cc3ccccc3)NC(=O)[C@@H](NC(=O)OCc3cnc(C(C)C)s3)C(C)C)[C@H](C(=O)NC(C)(C)C)C2)cc1OC [Example 19, 2-(1-Methylethyl)-5-thiazolylmethyl-[(1S)-1-[[[(1S,2R)-3-[(2S)-4-[(3,4-dimethoxylphenyl)methyl]-2-[[(1,1-dimethylethyl)amino]carbonyl]-1-piperazinyl]-2-hydroxy-1-(phenylmethyl)propyl]amino]carbonyl]-2-methylpropyl]carbamate]	0.017 µM	20.7 µM	51%
CCc1ncc(COC(=O)N[C@H](C(=O)N[C@@H](Cc2ccccc2)[C@H](O)CN2CCN(Cc3ccc(OC)c(OC)c3)C[C@H]2C(=O)NC(C)(C)C)C(C)C)s1 [Example 20]	0.016 µM	49.7 µM	37%
